Laboratory results from patent US20090048258A1, “Amide Compound” (priority 2005, published 2009).
pIC50: −log10 of the molar value. Read-outs that look alike come from different tables or passages of the source.

Columns and labels:
[1] = target: T1, Human DGAT1 (Homo sapiens, UniProt O75907); assay: DGAT inhibitory activity: [14C]-triglyceride synthesis by DGAT1 high expression Sf9 microsome; assay type: biochemical; settings: 25 μM [14C]-Oleoyl-CoA, 32° C., 15 min, read-out: DGAT inhibitory activity (according to IC50)
T1 construct: my translation of the primer: M-G-DYKDDDD-GDRGSSRRR) (N); made in house; host or cells: Sf9 insect cells (recombinant baculovirus BAC-DGAT1, pFASTBAC1); microsome fraction
T1 sequence (O75907 1-488): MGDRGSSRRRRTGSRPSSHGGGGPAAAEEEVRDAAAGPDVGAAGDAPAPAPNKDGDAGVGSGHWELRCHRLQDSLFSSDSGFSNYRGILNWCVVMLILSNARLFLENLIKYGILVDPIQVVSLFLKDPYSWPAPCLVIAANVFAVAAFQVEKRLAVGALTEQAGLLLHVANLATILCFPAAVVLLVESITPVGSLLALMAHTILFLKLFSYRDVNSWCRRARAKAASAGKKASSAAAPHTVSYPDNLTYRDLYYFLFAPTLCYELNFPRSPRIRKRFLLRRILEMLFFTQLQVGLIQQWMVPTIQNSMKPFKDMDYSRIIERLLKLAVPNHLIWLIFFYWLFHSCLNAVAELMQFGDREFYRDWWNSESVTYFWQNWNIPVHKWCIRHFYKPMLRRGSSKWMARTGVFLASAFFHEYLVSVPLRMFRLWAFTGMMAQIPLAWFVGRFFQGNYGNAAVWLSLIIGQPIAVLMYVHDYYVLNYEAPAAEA
In short: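 DGAT1 was overexpressed from recombinant baculovirus in Sf9 cells, and microsomes from these cells were the enzyme source. Reactions ran in 100 mM Tris-HCl pH 7.5, 250 mM sucrose, 150 mM MgCl2 and 0.01% BSA. [14C]-triglyceride was extracted into chloroform, separated by TLC and quantified by imaging plate, with inhibition calculated against control and blank (no microsome) counts.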

pIC50 ([1]; Table 1, 25 μM dioleoylglycerol)	melting point [°C]	pIC50 ([1]; Table 2, 25 μM dioleoylglycerol)	SMILES
6.30 to 7.30	139 to 140	–	CCOc1ccc(C(=O)CCC(=O)Nc2sc(-c3ccccc3)nc2-c2ccccc2)cc1OCC [Example 16, 4-(3,4-diethoxyphenyl)-N-(2,4-diphenyl-1,3-thiazol-5-yl)-4-oxobutanamide]
–	–	5.00 to 6.30	O=C(O)/C=C/c1cccc(-c2cc(NC(=O)CCC(=O)c3ccc4c(c3)CCO4)nc(-c3ccccc3)c2)c1 [Example 174, (2E)-3-[3-(2-{[4-(2,3-dihydro-1-benzofuran-5-yl)-4-oxobutanoyl]amino)-6-phenylpyridin-4-yl)phenyl]acrylic acid]
